Assay results reported in US6080746A, “Methods and compositions for the prophylaxis and treatment of cytomegalovirus infections” (priority 1991, dated 2000).
Converted amounts (≈) assume the structure as drawn. Where two headings read alike, the source gives them in different places.

Experiments:
cytomegalovirus = settings: cited from earlier work; for treatment of cytomegalovirus retinitis: Rosecan et al. 1986 / reported
CMV [1] = assay: CMV yields in MRC5 cell monolayer cultures by plaque assay (Tables 4 and 5); assay type: cell-based; settings: virus control 5.5
Method: (§1) The effectiveness of racemic 2'-CdG and of D-2'-CdG on CMV yields in MRC5 cell monolayer cultures was determined by a plaque assay with the results set forth in Tables 4 and 5:
(§2) ^a Drug treatment began immediately following the virus adsorption
(§3) ^a Drug treatment began immediately following the 1 1/2 hour

[2] = test system: human cytomegalovirus (strain AD 169); assay: CMV yield in MRC5 cells (Table 1); assay type: cell-based
From the text: (§4) In each case, drug treatment began 0 hr. postinfection.

HCMV [3] = assay: Virus yield-reduction assay, combination with DHPG on HCMV replication in MRC5 cells (Table 2); assay type: cell-based, human CMV; settings: DHPG 0
From the text: Effect of Combination Treatment^a With (±)-2'-CDG and
DHPG on HCMV Replication in MRC5 Cells
(§5) (Virus Yield-Reduction Assay)

MRC5 cells = assay: Drug cytotoxicity (gross morphology) in MRC5 cell monolayer cultures (Tables 4 and 5); assay type: cell-based, human
Method: as §1, §2, §3

[4] = test system: human cytomegalovirus (strain AD 169); assay: Inhibition of human cytomegalovirus in MRC5 cells by plaque reduction assay (reduction of CPE, MIC50; Table 1); assay type: cell-based; settings: for inhibition at 0.032 µg/mL: 0.032 μg/ml; for inhibition at 0.1 µg/mL: 0.1 μg/ml
From the text: as §4

CMV [5] = assay: Reduction of CPE in CMV-infected MRC5 cell monolayer cultures (Tables 4 and 5); assay type: cell-based; settings: Human betaherpesvirus 5, MRC5, read-out: Reduction (%) of CPE by CDG at Time of Harvest
Method: as §1, §2, §3

HCMV [6] = assay: Virus yield-reduction assay, combination with papaverine on HCMV replication in MRC5 cells (Table 3); assay type: cell-based, human CMV
From the text: The following results were obtained in testing mixtures of racemic 2'-CdG and papaverine under the same conditions:
Effect of Combination Treatment^a With Papaverine and
(±)-2'-CDG and on HCMV Replication in MRC5 Cells
as §5, §2

CMV [7] = assay: MIC50 against CMV in MRC5 cells; assay type: cell-based; settings: Human betaherpesvirus 5
[8] = test system: human diploid embryonic lung cells (MRC5); assay: Drug cytotoxicity (gross morphology) in MRC5 cells (Table 1)
From the text: Also evaluated under the same conditions were prior art drugs Ara-A and ganciclovir (DHPG). In each case, drug treatment began 0 hr. postinfection.

human CMV = assay: Plaque reduction assay against human CMV (ED50); assay type: cell-based
[9] = 0.1 μg/ml, virus control 5.5 (DHPG 5.3)
[10] = 0.32 μg/ml, virus control 5.5 (DHPG 5.3)
[11] = 1.0 μg/ml, virus control 5.5 (DHPG 5.3)
[12] = 3.2 μg/ml, virus control 5.5 (DHPG 5.3)
[13] = 10 μg/ml, virus control 5.5 (DHPG 5.3)
[14] = Human betaherpesvirus 5, MRC5, treatment 0 hr postinfection, read-out: Reduction (%) of CPE at Time of Harvest
[15] = Human betaherpesvirus 5, 0.32 μg/ml, MRC5, treatment 0 hr postinfection, read-out: Reduction (%) of CPE at Time of Harvest
[16] = Human betaherpesvirus 5, 1.0 μg/ml, MRC5, treatment 0 hr postinfection, read-out: Reduction (%) of CPE at Time of Harvest
[17] = Human betaherpesvirus 5, 3.2 μg/ml, MRC5, treatment 0 hr postinfection, read-out: Reduction (%) of CPE at Time of Harvest
[18] = Human betaherpesvirus 5, 10 μg/ml, MRC5, treatment 0 hr postinfection, read-out: Reduction (%) of CPE at Time of Harvest
[19] = Human betaherpesvirus 5, MRC5, 0 h, read-out: Reduction (%) of CPE at Time of Harvest

Nc1nc2c(ncn2COCCO)c(=O)[nH]1 [acyclovir]
activity against CMV retinitis (cytomegalovirus; CMV retinitis, reported): ineffective | treatment of cytomegalovirus retinitis (cytomegalovirus): unsuccessful | activity against established systemic CMV infections (cytomegalovirus; established systemic CMV infections, reported): ineffective

alpha-interferon
treatment of cytomegalovirus retinitis (cytomegalovirus): unsuccessful

Nc1nc2c(ncn2[C@@H]2C[C@H](CO)[C@@H](O)C2)c(=O)[nH]1 (relative stereo) [±2'-CdG]
CMV Yield (CMV [1]; Table 4, 0.032 μg/mL): 5.4 log10 CCID50 /mL | CMV Yield (CMV [1]; Table 4, 0.1 μg/mL): 5.0 log10 CCID50 /mL | CMV Yield (CMV [1]; Table 4, 0.32 μg/mL): 4.5 log10 CCID50 /mL | CMV Yield (CMV [1]; Table 4, 1.0 μg/mL): 3.6 log10 CCID50 /mL | CMV Yield (CMV [1]; Table 4, 3.2 μg/mL): 1.0 log10 CCID50 /mL | CMV Yield (CMV [1]; Table 4, 10 μg/mL): 0 log10 CCID50 /mL | CMV Yield ([2]; 0.032 μg/ml, virus control 5.5): 5.4 log10 CCID50 /ml | CMV Yield [2, 9]: 5.0 log10 CCID50 /ml | CMV Yield [2, 10]: 4.5 log10 CCID50 /ml | CMV Yield [2, 11]: 3.6 log10 CCID50 /ml | CMV Yield [2, 12]: 1.0 log10 CCID50 /ml | CMV Yield [2, 13]: 0 log10 CCID50 /ml | Reduction in CMV Yield (HCMV [3]; (±)-2'-CDG 0.1 (mM as printed)): 0.1 Log10 PFU/ML | Reduction in CMV Yield (HCMV [3]; (±)-2'-CDG 0.32 (mM as printed)): 0.5 Log10 PFU/ML | Reduction in CMV Yield (HCMV [3]; (±)-2'-CDG 1.0 (mM as printed)): 0.6 Log10 PFU/ML | Reduction in CMV Yield (HCMV [3]; (±)-2'-CDG 3.2 (mM as printed)): 1.0 Log10 PFU/ML | Drug Cytotoxicity (gross morphology) (MRC5 cells; Table 4, 0.032 μg/mL): 0 | Drug Cytotoxicity (gross morphology) (MRC5 cells; Table 4, 0.1 μg/mL): 0 | Drug Cytotoxicity (gross morphology) (MRC5 cells; Table 4, 0.32 μg/mL): 0 | Drug Cytotoxicity (gross morphology) (MRC5 cells; Table 4, 1.0 μg/mL): 0 | Drug Cytotoxicity (gross morphology) (MRC5 cells; Table 4, 3.2 μg/mL): v. sl. | Drug Cytotoxicity (gross morphology) (MRC5 cells; Table 4, 10 μg/mL): sl. toxicity | Drug Cytotoxicity (gross morphology) (MRC5 cells; Table 4, 32 μg/mL): toxic | inhibition at 0.032 µg/mL [4, 14]: 0% | inhibition at 0.1 µg/mL [4, 14]: 0% | inhibition at 0.32 µg/mL [4, 15]: 20% | inhibition at 1 µg/mL [4, 16]: 95% | inhibition at 3.2 µg/mL [4, 17]: 100% | inhibition at 10 µg/mL [4, 18]: 100% | inhibition at 0.032 µg/mL (CMV [5]; Table 4, 0.032 μg/mL): 0% | inhibition at 0.1 µg/mL (CMV [5]; Table 4, 0.1 μg/mL): 0% | inhibition at 0.32 µg/mL (CMV [5]; Table 4, 0.32 μg/mL): 20% | inhibition at 1 µg/mL (CMV [5]; Table 4, 1.0 μg/mL): 95% | inhibition at 3.2 µg/mL (CMV [5]; Table 4, 3.2 μg/mL): 100% | inhibition at 10 µg/mL (CMV [5]; Table 4, 10 μg/mL): 100% | Reduction in CMV Yield (HCMV [6]; (±)-2'-CDG 0.32 (mM as printed), papaverine (DHPG) 0): 0.7 Log10 PFU/ML | Reduction in CMV Yield (HCMV [6]; (±)-2'-CDG 1.0 (mM as printed), papaverine (DHPG) 0): 1.0 Log10 PFU/ML | Reduction in CMV Yield (HCMV [6]; (±)-2'-CDG 3.2 (mM as printed), papaverine (DHPG) 0): 1.7 Log10 PFU/ML | Reduction in CMV Yield (HCMV [6]; (±)-2'-CDG 10.0 (mM as printed), papaverine (DHPG) 0): 2.7 Log10 PFU/ML | IC50 (CMV [7]): 0.069 mg/L (≈ 0.26 µM) | Drug Cytotoxicity (gross morphology) ([8]; 0.032 μg/ml): 0 | Drug Cytotoxicity (gross morphology) ([8]; 0.1 μg/ml): 0 | Drug Cytotoxicity (gross morphology) ([8]; 0.32 μg/ml): 0 | Drug Cytotoxicity (gross morphology) ([8]; 1.0 μg/ml): 0 | Drug Cytotoxicity (gross morphology) ([8]; 3.2 μg/ml): v. sl. toxic | Drug Cytotoxicity (gross morphology) ([8]; 10 μg/ml): sl. toxic | Drug Cytotoxicity (gross morphology) ([8]; 32 μg/ml): toxic

CC(C)C(=O)OC[C@H]1O[C@@H](n2cnc3c(=O)[nH]c(N)nc32)C[C@@H]1OC(=O)C(C)C (racemic) [racemic 2'-deoxyguanosine-3',5'-0-diisobutyrate, 2'-deoxyguanosine-3',5'-0-diisobutyrate]
ED50 (human CMV): 3.9 mg/L (≈ 9.57 µM)

CCCCC(=O)OC[C@H]1O[C@@H](n2cnc3c(=O)[nH]c(N)nc32)C[C@@H]1O [D-2'-deoxyguanosine-5'-0-valerate]
ED50 (human CMV): 0.09 mg/L (≈ 0.256 µM)

Nc1nc(N)c2ncn([C@@H]3C[C@H](CO)[C@@H](O)[C@H]3O)c2n1 (relative stereo) [DAPR]
IC50 ([4]; Human betaherpesvirus 5, MRC5, tested under the same conditions as Table 1): 8.7 mg/L (≈ 31 µM) | therapeutic index ([4]; tested under the same conditions as Table 1): 40

COc1ccc(Cc2nccc3cc(OC)c(OC)cc23)cc1OC [Papaverine, reference compound]
Reduction in CMV Yield (HCMV [6]; (±)-2'-CDG 0, papaverine (DHPG) 1.0 μM): 0 Log10 PFU/ML | Reduction in CMV Yield (HCMV [6]; (±)-2'-CDG 0, papaverine (DHPG) 3.2 μM): 0.2 Log10 PFU/ML | Reduction in CMV Yield (HCMV [6]; (±)-2'-CDG 0, papaverine (DHPG) 10.0 μM): 0.6 Log10 PFU/ML | Reduction in CMV Yield (HCMV [6]; (±)-2'-CDG 0, papaverine (DHPG) 32.0 μM): 1.4 Log10 PFU/ML

Nc1ncnc2c1ncn2[C@@H]1O[C@H](CO)[C@@H](O)[C@@H]1O [Ara-A, reference compound]
treatment of cytomegalovirus retinitis (cytomegalovirus): unsuccessful | CMV Yield [2, 10]: 5.2 log10 CCID50 /ml | CMV Yield [2, 11]: 4.9 log10 CCID50 /ml | CMV Yield [2, 12]: 4.7 log10 CCID50 /ml | CMV Yield [2, 13]: 3.4 log10 CCID50 /ml | CMV Yield ([2]; 32 μg/ml, virus control 5.5 (DHPG 5.3)): 0.6 log10 CCID50 /ml | CMV Yield ([2]; 100 μg/ml, virus control 5.5 (DHPG 5.3)): 0 log10 CCID50 /ml | inhibition at 0.32 µg/mL [4, 19]: 0% | inhibition at 1 µg/mL [4, 19]: 0% | inhibition at 3.2 µg/mL [4, 19]: 5% | inhibition at 10 µg/mL [4, 19]: 90% | inhibition at 32 µg/mL [4, 19]: > 95% | inhibition at 100 µg/mL [4, 19]: 100% | Drug Cytotoxicity (gross morphology) ([8]; 0.32 μg/ml): 0 | Drug Cytotoxicity (gross morphology) ([8]; 1.0 μg/ml): 0 | Drug Cytotoxicity (gross morphology) ([8]; 3.2 μg/ml): 0 | Drug Cytotoxicity (gross morphology) ([8]; 10 μg/ml): 0

Nc1nc(N)c2ncn([C@@H]3C[C@H](CO)[C@@H](O)C3)c2n1 (relative stereo) [±C-2,6'-DAPdR]
CMV Yield ([2]; 0.032 μg/ml, virus control 5.5): 5.3 log10 CCID50 /ml | CMV Yield [2, 9]: 5.0 log10 CCID50 /ml | CMV Yield [2, 10]: 4.0 log10 CCID50 /ml | CMV Yield [2, 11]: 3.4 log10 CCID50 /ml | CMV Yield [2, 12]: 0 log10 CCID50 /ml | CMV Yield [2, 13]: 0 log10 CCID50 /ml | inhibition at 0.032 µg/mL [4, 14]: 0% | inhibition at 0.1 µg/mL [4, 14]: 0% | inhibition at 0.32 µg/mL [4, 15]: 25% | inhibition at 1 µg/mL [4, 16]: 95% | inhibition at 3.2 µg/mL [4, 17]: 100% | inhibition at 10 µg/mL [4, 18]: 100% | Drug Cytotoxicity (gross morphology) ([8]; 0.032 μg/ml): 0 | Drug Cytotoxicity (gross morphology) ([8]; 0.1 μg/ml): 0 | Drug Cytotoxicity (gross morphology) ([8]; 0.32 μg/ml): 0 | Drug Cytotoxicity (gross morphology) ([8]; 1.0 μg/ml): 0 | Drug Cytotoxicity (gross morphology) ([8]; 3.2 μg/ml): v. sl. toxic | Drug Cytotoxicity (gross morphology) ([8]; 10 μg/ml): sl. toxic | Drug Cytotoxicity (gross morphology) ([8]; 32 μg/ml): toxic
